The values that follow come from PMC12559310, “Tumor-targeted top1 inhibitor delivery with optimized parp inhibition in advanced solid tumors: a phase i trial of gapped scheduling” (Nature Communications, 2025).

Data set [1] concerns SCLC cell lines. Also noted: method as in protocol [5]. The settings on record: pre-clinical models of SCLC; ref protocol [5]; cited from earlier work.
Data set [2] concerns patients with solid tumors. The settings on record: Inv New Drugs, cited from earlier work.
The subject of data set [3] is BRCP. Particulars: in vitro; cited from earlier work.
For data set [4], the system named is target organ of toxicity. Set-up: method as in olaparib Investigator’s Brochure. The settings on record: toxicology studies; ref olaparib Investigator’s Brochure; cited from earlier work.
The test system of data set [5] is CYP3A4. The settings on record: in vitro; cited from earlier work.
Data set [6] relates to patients. The settings on record: tablet BID; protocol rationale; cited from earlier work.
Data set [7] concerns anaesthetized dog. Also noted: method as in olaparib Investigator’s Brochure. Particulars: at the doses studied, ref olaparib Investigator’s Brochure; cited from earlier work.
For data set [8], the system named is OAT3. The settings on record: in vitro; cited from earlier work.
In data set [9] the test system is patients with advanced solid tumors. The data set is described as follows: Phase I dose escalation (3 + 3 design): DLTs and MTD/RP2D of CRLX101 plus olaparib. It is filed as in vivo, human. Particulars: Olaparib 250 tab bid d3-13, 17-26 combined with CRLX101 12 mg/m2; % of single-agent MTD; Current study. An excerpt:
Olaparib tablets were given at escalating doses across cohorts (as shown in Fig. 1), administered twice daily on days 3–13 and 17–26 of the treatment cycle.
A standard 3 + 3 design was used for dose escalation. […] DLTs were based on toxicities observed during the first cycle. […] Study treatment was discontinued if there was a > 3-week delay in reinstitution of treatment due to drug-related toxicity during a cycle. Dose reductions were allowed for toxicities. A maximum of two dose reductions were allowed. Dose re-escalation was not allowed.

Data set [10] deals with OATP1B1. The settings on record: in vitro; cited from earlier work.
Data set [11] concerns CYP1A2. Particulars: in vitro; cited from earlier work.
Data set [12] concerns MATE1. Particulars: in vitro; cited from earlier work.
Data set [13] has as its system CYP3A4. The settings on record: in vitro; cited from earlier work. This is another data set of the same source.
For data set [14], the system named is MATE2K. Particulars: in vitro; cited from earlier work.
The nature of data set [15]: Olaparib peak plasma concentration (2 h post-oral administration). It is filed as in vivo, human. On the procedure:
Approximately 4 mL of blood was collected into a sodium heparin tube (BD Biosciences), immediately processed into plasma before storage in cryovials at − 80 °C. […] Total CPT, polymer-unconjugated CPT, and olaparib plasma concentrations were measured using previously published assays[53],[54]. Polymer-conjugated CPT plasma concentrations were obtained via subtracting the polymer-unconjugated concentration from the total CPT concentration.
First dose pharmacokinetic parameters were calculated using noncompartmental methods (Phoenix WinNonlin 8.0, Certara Pharsight Corp, Cary, NC). Any plasma concentration measured below the LLOQ was excluded from analyses. The maximum plasma concentration (CMAX) and time to CMAX (TMAX) were recorded as observed values. The area under the plasma concentration vs time curve to the last observed time point (AUCLAST) was calculated using the Linear Up Log Down trapezoidal rule. The elimination rate (kEL) was calculated as the slope of the log-transformed concentrations vs terminal time points. AUC extrapolated to time infinity (AUCINF) was calculated as AUCLAST + CLAST/kEL, where CLAST is the concentration at the last observed time point. Half-life (t1/2) was calculated as ln2/kEL. Apparent oral clearance (CL/F) was calculated as dose/AUCINF; volume of distribution at steady-state (Vss) was calculated via the product of mean residence time extrapolated to infinity (MRTINF) and […]. Pharmacokinetic parameters were calculated for each individual and summarized using the arithmetic mean ± standard deviation (SD).

In data set [16] the test system is OCT2. The settings on record: in vitro; cited from earlier work.
For data set [17], the system named is CYP3A4. The settings on record: in vitro; cited from earlier work. This is another data set of the same source.
In data set [18] the test system is CYP2B6. Particulars: in vitro; cited from earlier work.
Data set [19] has as its system rat. Also noted: method as in olaparib Investigator’s Brochure. The settings on record: rat Irwin test, at the doses studied; ref olaparib Investigator’s Brochure; cited from earlier work.
In data set [20] the test system is OCT1. Particulars: in vitro; cited from earlier work.
In data set [21] the test system is P-gp. The settings on record: in vitro; cited from earlier work.
Data set [22] deals with DNA damage. Set-up: method as in earlier work. Particulars: preclinical studies, transient, declining thereafter; cited from earlier work.
In data set [23] the test system is xenografts and patient-derived xenografts (PDXs). Set-up: method as in protocol [7]. The settings on record: animal models; ref protocol [7]; cited from earlier work.
Data set [24] has as its system platinum-sensitive SCLC relapse. Also noted: method as in protocol [8]. The settings on record: preliminary data, ref protocol [8], cited from earlier work.

Read-outs that look alike come from different tables or passages of the source.

As to `O=C(c1cc(Cc2n[nH]c(=O)c3ccccc23)ccc1F)N1CCN(C(=O)C2CC2)CC1` [olaparib], the single agent activity result in data set [1] is “striking single agent activity in a majority of SCLC cell lines tested”. The “PARPi % of MTD” value was 12% in data set [2] (Olaparib 50 mg bid d1-5 with Irinotecan 125 mg/m2 q2w, ref Chen, 2016); 6% in data set [2] (Olaparib 50 mg qd d1-21 with Irinotecan 200 mg/m2 q3w, ref Chen, 2016); 25% in [2] (Olaparib 100 mg bid d1-21 with Topotecan 1 mg/m2/d1-3, ref Samol, 2012); 83% in data set [9]. The BRCP inhibition result in data set [3] is recorded as “weak inhibitor”. Further, the “target organ of toxicity” value in [4] is “bone marrow”. In [5], the CYP3A4 induction entry was “Induction”. The “single-agent maximum tolerated dose (MTD)” value in data set [6] is listed as 300 mg. In addition, the “effects on cardiovascular or respiratory parameters” value in data set [7] is on record as “no noticeable”. Besides, in data set [8], the OAT3 inhibition entry was “inhibitor”. Also, the OATP1B1 inhibition entry in [10] is listed as “inhibitor”. Also, the CYP1A2 induction result in [11] is “Induction”. Further, the MATE1 inhibition entry in [12] is listed as “inhibitor”. The “principal enzyme forming the 3 main metabolites” value in data set [13] is listed as “CYP3A4”. The MATE2K inhibition result in data set [14] was “inhibitor”. The “dose dependence of peak concentrations” value in data set [15] (100-300 mg, 2 hours post-dose) is listed as “increased proportionally with the dose”. Also, the CMAX stood at 2843.1 ± 947.62 ng/mL in data set [15] (Olaparib dose 100 mg, N 2, 2 h post-dose, mean ± SD); 2359.8 ± 1548.0 ng/mL in data set [15] (Olaparib dose 150 mg, N 5, 2 h post-dose, mean ± SD); 4496.7 ± 2375.2 ng/mL in [15] (Olaparib dose 200 mg, N 3, 2 h post-dose, mean ± SD); 5594.6 ± 4132.4 ng/mL in data set [15] (Olaparib dose 300 mg, N 6, 2 h post-dose, mean ± SD). Further, the highest level in [15] (human, plasma, oral, Olaparib dose 250 mg, N 7, 2 h post-dose, mean ± SD) (Cmax at 2 h) was 6340 ± 4870 ng/mL. Also, the OCT2 inhibition result in data set [16] is listed as “inhibitor”. The CYP3A4 inhibition result in data set [17] was “inhibits CYP3A4 in vitro”. In data set [18], the CYP2B6 induction entry was “Induction”. In addition, in data set [19], the “behavioural, autonomic or motor effects” value is reported as “no noticeable”. In addition, in [20], the OCT1 inhibition result is reported as “inhibitor”. In addition, the P-gp inhibition result in data set [21] is “inhibitor”.
As to `CC[C@@]1(O)C(=O)OCc2c1cc1n(c2=O)Cc2cc3ccccc3nc2-1` [camptothecin, 20(S)-camptothecin], in data set [22], the “time of peak of camptothecin-induced DNA damage” value was 24 to 48 h.
As for `Cn1ncnc1[C@H]1c2n[nH]c(=O)c3cc(F)cc(c23)N[C@@H]1c1ccc(F)cc1` [talazoparib], the single agent activity entry in [1] is reported as “striking single agent activity in a majority of SCLC cell lines tested”. Besides, the “anti-tumor activity as a single agent” value in data set [23] is “comparable or superior to cisplatin”. Also, in data set [24] (of 23 patients), the “RECIST confirmed partial responses, patients” value is given as 2 and the “stable disease lasting more than 24 weeks, patients” value is given as 3. For the same molecule, in [24], the clinical benefit rate is given as 25%.

As usually defined, the Cmax is the peak of the concentration-time curve.
